This is an account of results in patent US11981660B2, “Neurite outgrowth promoters and uses thereof” (UNIVERSITY OF MIAMI, priority 2018, dated 2024).

For this experiment, the system named is hippocampal neurons. The experiment in a line: Neurite outgrowth assay in cultured E18 rat hippocampal neurons (48 h, βIII-tubulin staining, Cellomics ArrayScan). It is filed as cell-based. The note with it: Hippocampal neuron; for activity at 0.015625 µg/mL: 15.625 ng/mL compound; for activity at 0.015625 µg/mL / activity at 0.03125 µg/mL / activity at 0.0625 µg/mL / activity at 0.125 µg/mL / activity at 0.25 µg/mL / activity at 0.5 µg/mL: 48 hours, read-out: neurite growth length (% NTL); for activity at 0.03125 µg/mL: 31.25 ng/mL compound; for activity at 0.0625 µg/mL: 62.5 ng/mL compound; for activity at 0.125 µg/mL: 125 ng/mL compound; for activity at 0.25 µg/mL: 250 ng/mL compound; for activity at 0.5 µg/mL: 500 ng/mL compound; for EC200 / EC300: 48 h, estimated using linear interpolation; for EC200: 200% effective dose, read-out: ED200%; for EC300: 300% effective dose, read-out: ED300%. As to the method: Pre-coating culture plates: On the day before the experiment, 96-well plates were pre-coated by plating 50 μL of poly-D-lysine solution (PDL, 0.5 mg/mL) in each well. The next morning, the plates were washed four or five times with HBSS or PBS (150 μL/rinse), then left in buffer until cell plating
Preparing the cells: A timed pregnant rat carrying E18 embryos was euthanized using an IACUC approved method. In a laminar flow hood, the embryos were removed and placed in a petri dish containing Hank's Balanced Salt Solution (HBSS) with 20 mM HEPES, pH 7.3. Pup brains were dissected (see Meberg et al., Methods cell Biol 71:111-127 (2003)) and hippocampi were collected in 15 mL a conical tube containing Hibernate E with SM1 (2% v/v).
Dissociation media was prepared by combining 4.5 mL of Hibernate E (without SM1) with 0.5 mL of trypsin and 100 μl of DNAse solution. The medium over the hippocampi was carefully removed and replaced with dissociation solution, then incubated at 37° C. for 15-20 minutes, occasionally swirling the tube.
Using flame polished cotton plugged Pasteur pipettes, the dissociation media was removed, and then 5 mL of Hibernate E containing SM1 were added. The tube was swirled to thoroughly wash the tissue. The tissue was allowed to settle to the bottom of the tube, and the rinse solution was carefully removed. This step was repeated 5 times to dilute out trypsin and DNAse and remove any debris from lysed cells.
The final rinse media was removed from the tube and 1 pipette-full (1-2 mL) of Hibernate E with SM1 was added. Using the flame-polished Pasteur pipette (pre-wetted with rinse media), the tube was triturated until all cells had dissociated and no visible chunks of tissue remained. Fewer than ten triturations were typically performed. The volume was adjusted to 8-12 mL using Hibernate E containing SM1, the well was mixed and cell concentration was determined.
Plating: The cells were diluted in culture media (NbActiv4 Cell-culture media) to a final concentration of 10,000 cells/mL. The HBSS was aspirated from PDL coated plates, and 150 μL of cell solution was loaded in the middle 48 wells at 1500 cells per well. Water was loaded in the outer wells to decrease evaporation from edge wells. Cells were allowed to adhere for 2 hours in tissue culture incubator prior to treatment.
Treatment: Compounds were diluted to various concentrations to provide 6 dose response concentrations of 500 ng/mL, 250 ng/mL, 125 ng/mL, 62.5 ng/mL, 31.25 ng/mL, and 15.625 ng/mL. The plates were cultured for 48 hours, exposed to the compound at the various dose response concentrations.
Fixing the cultures: The culture medium was removed from the plates and immediately replaced with 100-200 μL of warm (37° C.) 4% paraformaldehyde (“PFA”) solution in phosphate-buffered saline (“PBS”). The cells were fixed for 15-20 minutes at room temperature, and then rinsed with PBS (200 μl/well×3).
Staining and imaging: The PBS was removed and replaced with 100 μL of blocking/permeabilization buffer (PBS, 0.2% fish gelatin, 0.03% Triton X-100, 0.02% NaN3), then incubated overnight at 4° C. To this was added 100 μL of primary antibody solution (mouse anti-Beta III tubulin in blocking buffer) and incubate overnight at 4° C. The wells were rinsed with PBS (200 μl×3), which was then removed and replaced with 100 μL of secondary antibody solution (Goat anti-mouse Alexa 488, 10 μg/ml Hoechst 33342, 0.2% fish gelatin, 0.02% azide, in PBS). The plate was shaken gently on a rotating shaker for 2 hours, then rinsed with PBS (200 μl×5).
The plate was imaged using a Cellomics ArrayScan VTI in 2 different channels for nuclear staining (Hoechst) and cell body/neurite staining (βIII-tubulin). Typically, nine fields per well were imaged with a 5× objective and automatically traced by the Neuronal Profiling Bioapplication. To get reproducible results, at least 200-300 valid neurons were measured per condition. […]

With `C[C@@H]1CN(CCCC[C@H]2CNC(CCCc3ccccc3)=N2)C(=S)N1CCC1CCCCC1` [Compound A6, (R)-3-(2-cyclohexylethyl)-4-methyl-1-(4-((S)-2-(3-phenylpropyl)-4,5-dihydro-1H-imidazol-4-yl)butyl)imidazolidine-2-thione], the activity at 0.015625 µg/mL came to 101%, the activity at 0.03125 µg/mL came out at 122%, the activity at 0.0625 µg/mL was found to be 122% and the activity at 0.125 µg/mL was 210%. Besides, the activity at 0.25 µg/mL amounted to 247% and the activity at 0.5 µg/mL amounted to 243%.
On to `CC(C)CCCN1C(=S)N(CCCC[C@H]2CNC(C3CCCC3)=N2)C[C@H]1CC(C)C` [Compound A11, (R)-1-(4-((S)-2-cyclopentyl-4,5-dihydro-1H-imidazol-4-yl)butyl)-4-isobutyl-3-(4-methylpentyl)imidazolidine-2-thione], for which the activity at 0.015625 µg/mL turned out to be 135%, the activity at 0.03125 µg/mL was 215%, the activity at 0.0625 µg/mL was 266% and the activity at 0.125 µg/mL stood at 273%. In addition, the activity at 0.25 µg/mL turned out to be 264% and the activity at 0.5 µg/mL was 256%.
For the compound `CC(C)C[C@@H]1CN(CCCC[C@H]2CNC(C3CCCC3)=N2)C(=S)N1CC1CCC(C)CC1` (stereo partly drawn) [Compound A17, (R)-1-(4-((S)-2-cyclopentyl-4,5-dihydro-1H-imidazol-4-yl)butyl)-4-isobutyl-3-((4-methylcyclohexyl)methyl)imidazolidine-2-thione], the activity at 0.015625 µg/mL turned out to be 170%, the activity at 0.03125 µg/mL was found to be 255%, the activity at 0.0625 µg/mL came to 254% and the activity at 0.125 µg/mL stood at 312%. In addition, the activity at 0.25 µg/mL amounted to 238%, the activity at 0.5 µg/mL worked out at 263%, the EC200 is 0.004 µM and the EC300 was 0.025 µM.
Take `CCC(C)C1=N[C@@H](CCCCN2C[C@@H](C)N(CC3CCC(C)CC3)C2=S)CN1` (stereo partly drawn) [Compound A7, (4R)-1-(4-((4S)-2-(sec-butyl)-4,5-dihydro-1H-imidazol-4-yl)butyl)-4-methyl-3-((4-methylcyclohexyl)methyl)imidazolidine-2-thione]: the activity at 0.015625 µg/mL was found to be 97%, the activity at 0.03125 µg/mL was found to be 135%, the activity at 0.0625 µg/mL was 150% and the activity at 0.125 µg/mL was determined as 166%. In addition, the activity at 0.25 µg/mL came out at 267% and the activity at 0.5 µg/mL stood at 294%.
In the case of `CC1CCC(CN2C(=S)N(CCCC[C@H]3CNC(C4CCCC4)=N3)C[C@H]2C)CC1` (stereo partly drawn) [Compound A8, (R)-1-(4-((S)-2-cyclopentyl-4,5-dihydro-1H-imidazol-4-yl)butyl)-4-methyl-3-((4-methylcyclohexyl)methyl)imidazolidine-2-thione], the activity at 0.015625 µg/mL is 95%, the activity at 0.03125 µg/mL turned out to be 128%, the activity at 0.0625 µg/mL is 168% and the activity at 0.125 µg/mL worked out at 231%. Further, the activity at 0.25 µg/mL was 257%, the activity at 0.5 µg/mL turned out to be 322%, the EC200 was 0.13 µM and the EC300 was 0.282 µM.
For `CC(C)CCCN1C(=S)N(CCCC[C@H]2CNC(CCCc3ccccc3)=N2)C[C@H]1C` [Compound A3, (R)-4-methyl-3-(4-methylpentyl)-1-(4-((S)-2-(3-phenylpropyl)-4,5-dihydro-1H-imidazol-4-yl)butyl)imidazolidine-2-thione], the activity at 0.015625 µg/mL is 116%, the activity at 0.03125 µg/mL stood at 100%, the activity at 0.0625 µg/mL was 124% and the activity at 0.125 µg/mL was found to be 160%. In addition, the activity at 0.25 µg/mL is 257% and the activity at 0.5 µg/mL was found to be 347%.
For the compound `CCC(C)C1=N[C@@H](CCCCN2C[C@@H](C)N(CCCC(C)C)C2=S)CN1` (mixture of isomers) [Compound A1, (4R)-1-(4-((4S)-2-(sec-butyl)-4,5-dihydro-1H-imidazol-4-yl)butyl)-4-methyl-3-(4-methylpentyl)imidazolidine-2-thione], the activity at 0.015625 µg/mL came out at 92%, the activity at 0.03125 µg/mL came out at 116%, the activity at 0.0625 µg/mL came out at 155% and the activity at 0.125 µg/mL amounted to 169%. Further, the activity at 0.25 µg/mL turned out to be 209% and the activity at 0.5 µg/mL stood at 323%.
`CCC(C)C1=N[C@@H](CCCCN2C[C@@H](CC(C)C)N(CCC3CCCCC3)C2=S)CN1` (stereo partly drawn) [Compound A13, (4R)-1-(4-((4S)-2-(sec-butyl)-4,5-dihydro-1H-imidazol-4-yl)butyl)-3-(2-cyclohexylethyl)-4-isobutylimidazolidine-2-thione]: the activity at 0.015625 µg/mL turned out to be 159%, the activity at 0.03125 µg/mL amounted to 179%, the activity at 0.0625 µg/mL turned out to be 262% and the activity at 0.125 µg/mL is 253%. Also, the activity at 0.25 µg/mL turned out to be 253% and the activity at 0.5 µg/mL was determined as 264%.
With `CCC(C)C1=N[C@@H](CCCCN2C[C@@H](c3ccccc3)N(CCC3CCCCC3)C2=S)CN1` (stereo partly drawn) [Compound A22, (4R)-1-(4-((4S)-2-(sec-butyl)-4,5-dihydro-1H-imidazol-4-yl)butyl)-3-(2-cyclohexylethyl)-4-phenylimidazolidine-2-thione], the activity at 0.015625 µg/mL was 139%, the activity at 0.03125 µg/mL turned out to be 201%, the activity at 0.0625 µg/mL came to 257% and the activity at 0.125 µg/mL was 246%. Moreover, the activity at 0.25 µg/mL stood at 222% and the activity at 0.5 µg/mL turned out to be 228%.
Turning to `CC(C)C[C@@H]1CN(CCCC[C@H]2CNC(CCCc3ccccc3)=N2)C(=S)N1CC1CCC(C)CC1` (stereo partly drawn) [Compound A18, (R)-4-isobutyl-3-((4-methylcyclohexyl)methyl)-1-(4-((S)-2-(3-phenylpropyl)-4,5-dihydro-1H-imidazol-4-yl)butyl)imidazolidine-2-thione], the activity at 0.015625 µg/mL turned out to be 145%, the activity at 0.03125 µg/mL was determined as 197%, the activity at 0.0625 µg/mL was 247% and the activity at 0.125 µg/mL was 257%. The activity at 0.25 µg/mL is 240%, the activity at 0.5 µg/mL came out at 224%, the EC200 was 0.025 µM and the EC300 was 0.461 µM.
Consider `C[C@@H]1CN(CCCC[C@H]2CNC(C3CCCC3)=N2)C(=S)N1CCC1CCCCC1` [Compound A5, (R)-3-(2-cyclohexylethyl)-1-(4-((S)-2-cyclopentyl-4,5-dihydro-1H-imidazol-4-yl)butyl)-4-methylimidazolidine-2-thione], for which the activity at 0.015625 µg/mL turned out to be 105%, the activity at 0.03125 µg/mL worked out at 158%, the activity at 0.0625 µg/mL was 188% and the activity at 0.125 µg/mL was determined as 251%. The activity at 0.25 µg/mL came out at 246% and the activity at 0.5 µg/mL stood at 304%.
With `CCC(C)C1=N[C@@H](CCCCN2C[C@@H](c3ccccc3)N(CC3CCC(C)CC3)C2=S)CN1` (stereo partly drawn) [Compound A25, (4R)-1-(4-((4S)-2-(sec-butyl)-4,5-dihydro-1H-imidazol-4-yl)butyl)-3-((4-methylcyclohexyl)methyl)-4-phenylimidazolidine-2-thione], the activity at 0.015625 µg/mL came to 190%, the activity at 0.03125 µg/mL stood at 256%, the activity at 0.0625 µg/mL turned out to be 297% and the activity at 0.125 µg/mL was determined as 302%. The activity at 0.25 µg/mL was determined as 256%, the activity at 0.5 µg/mL worked out at 280%, the EC200 was 0.005 µM and the EC300 was 0.054 µM.
